SMILES strings stand for the structures.

Tested on in the first data set: not given
Experiment: not given
To be noted: from C=CCCCCC/C=C\c1cc(C(=O)NCC(=O)N2[C@H]3C[C@@]3(COCCCC=C)C[C@H]2C(=O)OCc2ccccc2)ccc1Oc1ccc(F)cc1; rcm bond; Grubbs 1st generation catalyst; DCM; 1.76 mM; 25.0 °C; 48.0 h.
The compound `O=C1NCC(=O)N2[C@H]3C[C@@]3(COCCCC=CCCCCC/C=C\c3cc1ccc3Oc1ccc(F)cc1)C[C@H]2C(=O)OCc1ccccc1` had a ring closure, yield of all isomers of 7.8%.

Still in this data set, the particulars now being: from C=CCCCCCCCCC(=O)N[C@@H](CCOc1ccccc1)C(=O)NCC(=O)N1[C@H]2C[C@@]2(COCCCC=C)C[C@H]1C(=O)OCC; rcm bond; Grubbs 1st catalyst; DCM; 15.3 mM; 28.0 °C; 16.0 h.
Consider `CCOC(=O)[C@@H]1C[C@@]23COCCC/C=C/CCCCCCCCC(=O)N[C@@H](CCOc4ccccc4)C(=O)NCC(=O)N1[C@H]2C3`, for which the ring closure, yield of all isomers came to 38.8%.

Still in this data set, the particulars now being: from C=CCCCCCCCCC(=O)N[C@@H](CCOc1ccccc1)C(=O)NCC(=O)N1[C@H]2C[C@@]2(COCCCC=C)C[C@H]1C(=O)OCc1ccccc1; rcm bond; Grubbs 1st catalyst; DCM; 14.0 mM; 28.0 °C; 16.0 h.
On to `O=C1CCCCCCCC/C=C/CCCOC[C@@]23C[C@@H]2N(C(=O)CNC(=O)[C@H](CCOc2ccccc2)N1)[C@H](C(=O)OCc1ccccc1)C3`, for which the ring closure, yield of all isomers was 43.4%.

The next data set addresses T1, Human complement C1s enzyme (Homo sapiens, UniProt P09871).
T1 construct: purified from human serum, Complement Technology, Inc; purchased Complement Technology, Inc; host or cells: human serum
T1 sequence (P09871 438-688 limits assumed): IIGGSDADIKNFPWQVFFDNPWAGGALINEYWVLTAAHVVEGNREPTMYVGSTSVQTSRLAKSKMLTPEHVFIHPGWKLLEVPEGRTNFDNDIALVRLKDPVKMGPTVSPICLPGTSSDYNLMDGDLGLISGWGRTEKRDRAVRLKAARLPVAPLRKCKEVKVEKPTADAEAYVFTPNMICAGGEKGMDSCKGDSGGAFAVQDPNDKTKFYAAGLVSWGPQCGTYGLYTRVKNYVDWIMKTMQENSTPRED
T1 sequence (P09871 16-437 partner limits assumed): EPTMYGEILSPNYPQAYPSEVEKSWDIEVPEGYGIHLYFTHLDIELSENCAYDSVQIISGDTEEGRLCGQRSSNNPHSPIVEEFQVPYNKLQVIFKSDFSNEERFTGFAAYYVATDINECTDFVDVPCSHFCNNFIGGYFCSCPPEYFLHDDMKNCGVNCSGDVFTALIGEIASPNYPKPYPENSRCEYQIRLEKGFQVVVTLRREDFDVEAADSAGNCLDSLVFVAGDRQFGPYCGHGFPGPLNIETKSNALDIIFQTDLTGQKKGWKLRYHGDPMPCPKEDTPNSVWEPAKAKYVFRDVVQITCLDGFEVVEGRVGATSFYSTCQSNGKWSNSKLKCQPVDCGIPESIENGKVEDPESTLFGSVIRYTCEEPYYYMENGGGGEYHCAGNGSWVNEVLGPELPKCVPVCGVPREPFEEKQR
As to the kind of experiment: Human C1s Enzyme Assay. To be noted: human C1s 1.16 nM, 5 min preincubation, substrate Z-L-Lys-SBzl 100 μM, A405; read-out: C1s Protease Activity. The class given is biochemical. In a few lines: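 IC50 values were fitted by nonlinear regression to rates measured as A405 every 30 s for 30 min. The thioester substrate Z-L-Lys-SBzl and Ellman's reagent were each at 100 μM. Serum-derived C1s at 1.16 nM final had 5 min of room-temperature preincubation with compound (pH 7.5 Tris buffer, 1 M NaCl).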
In the case of `C[C@@H](NC(=O)[C@@H]1CC2(CC2)CN1C(=O)CNC(=O)CCCOc1ccccc1)c1cc(C(=N)N)cs1` [Compound 116, (6S)-N-[(1R)-1-(4-carbamimidoylthiophen-2-yl)ethyl]-5-[2-(4-phenoxybutanamido)acetyl]-5-azaspiro[2.4]heptane-6-carboxamide], the IC50 is below 100 nM.
Still for that read-out and setting: in the case of `N=C(N)c1csc([C@@H](NC(=O)[C@@H]2CC3(CN2C(=O)CNC(=O)CCCOc2ccccc2)OCCO3)C2CC2)c1` [Compound 178, (S)-N-((S)-(4-carbamimidoylthiophen-2-yl)(cyclopropyl)methyl)-7-((4-phenoxybutanoyl)glycyl)-1,4-dioxa-7-azaspiro[4.4]nonane-8-carboxamide] it was above 1000 nM; in that of `C[C@@]12C[C@@H]1N(C(=O)CNC(=O)CCCOc1ccc(S(F)(F)(F)(F)F)cc1)[C@H](C(=O)NCc1cc(C(=N)N)cs1)C2` [Compound 96, (1S,3S,5S)-N-((4-carbamimidoylthiophen-2-yl)methyl)-5-methyl-2-((4-(4-(pentafluoro-λ^6-sulfanyl)phenoxy)butanoyl)glycyl)-2-azabicyclo[3.1.0]hexane-3-carboxamide], below 100 nM; in that of `CO[C@@H]1C[C@@H](C(=O)NCc2cc(C(=N)N)cs2)N(C(=O)CNC(=O)CCCOc2ccccc2)C1` [Compound 27, (2S,4R)-N-((4-carbamimidoylthiophen-2-yl)methyl)-4-methoxy-1-((4-phenoxy-butanoyl)glycyl)pyrrolidine-2-carboxamide], below 100 nM.
In the case of `CCOC(=O)c1ccc(OCCCC(=O)NCC(=O)N2[C@H]3C[C@@]3(C)C[C@H]2C(=O)NCc2cc(C(=N)N)cs2)cc1` [Compound 79, Ethyl 4-(4-((2-((1S,3S,5S)-3-(((4-carbamimidoylthiophen-2-yl)methyl)carbamoyl)-5-methyl-2-azabicyclo[3.1.0]hexan-2-yl)-2-oxoethyl)amino)-4-oxobutoxy)benzoate], the IC50 was below 100 nM.
Same read-out and setting: next, `C[C@@H](NC(=O)[C@@H]1C[C@]2(C)C[C@@H]2N1C(=O)CNC(=O)c1ccc(Oc2ccccc2)cc1)c1cc(C(=N)N)cs1` (single isomer, unassigned) [Compound 49, (1S,3S,5S)-N-((R*)-1-(4-carbamimidoylthiophen-2-yl)ethyl)-5-methyl-2-((4-phenoxy-benzoyl)glycyl)-2-azabicyclo[3.1.0]hexane-3-carboxamide]: 100 to 1000 nM; `C[C@@H](NC(=O)[C@@H]1CC2(CN1C(=O)CNC(=O)c1ccc(C(F)(F)F)cc1)OCCO2)c1cc(C(=N)N)cs1` [Compound 263, (S)-N-((R)-1-(4-carbamimidoylthiophen-2-yl)ethyl)-7-((4-(trifluoromethyl)benzoyl)glycyl)-1,4-dioxa-7-azaspiro[4.4]nonane-8-carboxamide]: below 100 nM.
For `N=C(N)c1csc([C@H](NC(=O)[C@@H]2C[C@@H](OC(F)F)CN2C(=O)CNC(=O)c2ccc(Oc3ccccc3)cc2)C2CC2)c1` [Compound 183, (2S,4R)-N-((R)-(4-carbamimidoylthiophen-2-yl)(cyclopropyl)methyl)-4-(difluoromethoxy)-1-((4-phenoxybenzoyl)glycyl)pyrrolidine-2-carboxamide], the IC50 was above 1000 nM.
Turning to `C[C@@H](NC(=O)[C@@H]1C[C@](F)(COCCCCCC(=O)O)CN1C(=O)CNC(=O)c1ccc(Oc2ccccc2)cc1)c1cc(C(=N)N)cs1` [Compound 199, 6-(((3R,5S)-5-(((R)-1-(4-carbamimidoylthiophen-2-yl)ethyl)carbamoyl)-3-fluoro-1-((4-phenoxybenzoyl)glycyl)pyrrolidin-3-yl)methoxy)hexanoic acid], the IC50 was below 100 nM.
As for `C[C@@H](NC(=O)[C@@H]1C[C@]2(C)C[C@@H]2N1C(=O)CNC(=O)CCCOc1ccccc1)c1cc(C(=N)N)cs1` [Compound 122, (1S,3S,5S)-N-((R)-1-(4-carbamimidoylthiophen-2-yl)ethyl)-5-methyl-2-((4-phenoxy-butanoyl)glycyl)-2-azabicyclo[3.1.0]hexane-3-carboxamide], the IC50 is below 100 nM.
For the compound `N=C(N)c1csc(CNC(=O)[C@@H]2C[C@@H](C3CCCC3)CN2C(=O)CNC(=O)c2ccc(Oc3ccccc3)cc2)c1` [Compound 54, (2S,4S)-N-((4-carbamimidoylthiophen-2-yl)methyl)-4-cyclopentyl-1-((4-phenoxy-benzoyl)glycyl)pyrrolidine-2-carboxamide], the IC50 is below 100 nM.
`CS(=O)(=O)[C@@H]1C[C@@H](C(=O)NCc2cc(C(=N)N)cs2)N(C(=O)CNC(=O)CCCOc2ccccc2)C1` [Compound 98, (2S,4R)-N-((4-carbamimidoylthiophen-2-yl)methyl)-4-(methylsulfonyl)-1-((4-phenoxybutanoyl)glycyl)pyrrolidine-2-carboxamide]: the IC50 was below 100 nM.
Regarding `C[C@@]12C[C@@H]1N(C(=O)CNC(=O)c1ccc(Oc3ccccc3)cc1)[C@H](C(=O)NCc1cc(/C(N)=N/[N+](=O)[O-])cs1)C2` [Compound 11, (1S,3S,5S)-5-methyl-N-((4-((Z)-N′-nitrocarbamimidoyl)thiophen-2-yl)methyl)-2-((4-phenoxybenzoyl)glycyl)-2-azabicyclo[3.1.0]hexane-3-carboxamide], the IC50 was above 1000 nM.
As for `N=C(N)c1csc(CNC(=O)[C@@H]2[C@H](O)[C@@H](F)CN2C(=O)CNC(=O)CCCOc2ccccc2)c1` [Compound 128, (2S,3S,4S)-N-((4-carbamimidoylthiophen-2-yl)methyl)-4-fluoro-3-hydroxy-1-((4-phenoxybutanoyl)glycyl)pyrrolidine-2-carboxamide], the IC50 was below 100 nM.
As to `COC[C@@]12C[C@@H]1N(C(=O)CNC(=O)CCCOc1ccccc1)[C@H](C(=O)NCc1cc(C(=N)N)cs1)C2` [Compound 63, (1S,3S,5R)-N-((4-carbamimidoylthiophen-2-yl)methyl)-5-(methoxymethyl)-2-((4-phenoxybutanoyl)glycyl)-2-azabicyclo[3.1.0]hexane-3-carboxamide], the IC50 was below 100 nM.
For `O=C(NCC(=O)N1CC2(C[C@H]1C(=O)NCc1cc(-c3ncc[nH]3)cs1)OCCO2)c1ccc(Oc2ccccc2)cc1` [Compound 259, (S)-N-((4-(1H-imidazol-2-yl)thiophen-2-yl)methyl)-7-((4-phenoxybenzoyl)glycyl)-1,4-dioxa-7-azaspiro[4.4]nonane-8-carboxamide], the IC50 was below 100 nM.
Take `N=C(N)c1csc(CNC(=O)[C@@H]2CC(O)(C(F)(F)F)CN2C(=O)CNC(=O)CCCOc2ccccc2)c1` (stereo partly drawn) [Compound 62, (2S)-N-((4-carbamimidoylthiophen-2-yl)methyl)-4-hydroxy-1-((4-phenoxybutanoyl)-glycyl)-4-(trifluoromethyl)pyrrolidine-2-carboxamide]: the IC50 is below 100 nM.
The same measure, in the same setting: next, `[N-]=[N+]=NC[C@@]1(F)C[C@@H](C(=O)NCc2cc(C(=N)N)cs2)N(C(=O)CNC(=O)CCCOc2ccccc2)C1` [Compound 85, (2S,4R)-4-(azidomethyl)-N-((4-carbamimidoylthiophen-2-yl)methyl)-4-fluoro-1-((4-phenoxybutanoyl)glycyl)pyrrolidine-2-carboxamide]: below 100 nM.
